Measured values taken from paper PMC6757278, “Structural Basis for Inhibition of Human Primase by Arabinofuranosyl Nucleoside Analogues Fludarabine and Vidarabine” (ACS Chemical Biology, 2019).

These compounds were tested against T1, Pri1 (full-length, 1 to 420) (Homo sapiens, UniProt P49642) (assay: fluorescence polarization competition against 6FAM-ATP). Details: read-out: K1/2.
T1 construct: gene PRIM1; full-length catalytic subunit alone (1-420), His6 tag cleaved by TEV protease, E. coli Rosetta2 (DE3), pRSFDuet-1
T1 sequence (P49642 1-420): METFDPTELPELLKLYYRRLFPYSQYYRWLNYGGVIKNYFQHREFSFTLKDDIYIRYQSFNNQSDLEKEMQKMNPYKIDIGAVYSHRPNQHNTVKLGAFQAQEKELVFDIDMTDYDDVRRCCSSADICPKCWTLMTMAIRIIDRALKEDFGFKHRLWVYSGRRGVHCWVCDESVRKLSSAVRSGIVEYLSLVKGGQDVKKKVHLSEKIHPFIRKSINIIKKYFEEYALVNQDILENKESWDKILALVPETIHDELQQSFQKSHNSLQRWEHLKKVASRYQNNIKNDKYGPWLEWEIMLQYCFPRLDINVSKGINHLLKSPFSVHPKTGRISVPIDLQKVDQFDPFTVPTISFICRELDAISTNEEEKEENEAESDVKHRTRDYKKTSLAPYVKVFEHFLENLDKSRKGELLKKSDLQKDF
Assay type: binding
With `Nc1nc(F)nc2c1ncn2[C@@H]1O[C@H](COP(=O)(O)OP(=O)(O)OP(=O)(O)O)[C@@H](O)[C@H]1O` [2F-ATP] the IC50 was 7200 nM. In the case of `Nc1ncnc2c1ncn2[C@@H]1O[C@H](COP(=O)(O)OP(=O)(O)OP(=O)(O)O)[C@@H](O)[C@H]1O` [ATP], the IC50 is reported as 7500 nM. Work on `Nc1ncnc2c1ncn2[C@H]1C[C@H](O)[C@@H](COP(=O)(O)OP(=O)(O)OP(=O)(O)O)O1` [dATP] yielded an IC50 of 3300 nM. For `Nc1nc(F)nc2c1ncn2[C@@H]1O[C@H](COP(=O)(O)OP(=O)(O)OP(=O)(O)O)[C@@H](O)[C@@H]1O` [fludarabine-TP], the IC50 was 1100 nM. For `Nc1ncnc2c1ncn2[C@@H]1O[C@H](COP(=O)(O)OP(=O)(O)OP(=O)(O)O)[C@@H](O)[C@@H]1O` [vidarabine-TP], the IC50 was 1500 nM.

Each compound was assayed against T1, Pri1 (full-length, 1 to 420) (assay: fluorescence anisotropy direct titration). Details: not given.
Assay type: binding
For `O=C(NCCCCCCNc1ncnc2c1ncn2[C@@H]1O[C@H](COP(=O)(O)OP(=O)(O)OP(=O)(O)O)[C@@H](O)[C@H]1O)c1ccc2c(c1)C1(OC2=O)c2ccc(O)cc2Oc2cc(O)ccc21` [6FAM-ATP], the Kd was 410 nM.
